From patent EP4603105A1, “PHARMACEUTICAL COMPOSITION CONTAINING CYCLIC COMPOUND HAVING SELECTIVE KRAS INHIBITORY EFFECT AGAINST HRAS AND NRAS” (CHUGAI SEIYAKU KABUSHIKI KAISHA, priority 2022, dated 2024)
Like-named read-outs stand apart in the source and are kept apart here.

Tests used:
[1] = molecular target: HRAS wild-type protein (Homo sapiens, UniProt P01112); test: Binding to HRAS by surface plasmon resonance (SPR), KD and KD ratio to KRAS; conditions: ratio of KD for HRAS wild-type protein to KD for KRAS
How it was run: (§1)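 Recombinant RAS proteins bearing a biotinylated Avi tag and loaded with GDP served as the captured ligand, recaptured fresh every cycle. Binding responses were referenced to an uncoated surface and a buffer-only blank cycle. Dissociation constants were obtained by 1:1 model fitting at 30°C.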

[2] = test system: human lung cancer strain NCI-H441; format: cell-based
How it was run: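 Signal came from […] measured per well once the reagent was added. Beforehand, cells were cultured at 37°C and 5% carbon dioxide on a compound series serially diluted in dimethyl sulfoxide.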

[3] = molecular target: GDP-bound NRAS wild-type protein (Homo sapiens, UniProt P01111); test: Binding to NRAS by surface plasmon resonance (SPR), KD and KD ratio to KRAS; conditions: ratio of KD for GDP-bound NRAS wild-type protein to KD for KRAS
How it was run: as §1

[4] = NCI-H441 cells, 4 days, CellTiter-Glo, read-out: NCl-H441 IC50

Chain of GDP-bound NRAS wild-type protein (P01111 whole entry): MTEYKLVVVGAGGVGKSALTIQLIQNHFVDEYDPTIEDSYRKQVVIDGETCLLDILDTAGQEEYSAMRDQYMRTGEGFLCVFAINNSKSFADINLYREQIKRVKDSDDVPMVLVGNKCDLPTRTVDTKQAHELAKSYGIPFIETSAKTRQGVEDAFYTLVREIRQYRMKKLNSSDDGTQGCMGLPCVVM
Chain of HRAS wild-type protein (P01112 whole entry): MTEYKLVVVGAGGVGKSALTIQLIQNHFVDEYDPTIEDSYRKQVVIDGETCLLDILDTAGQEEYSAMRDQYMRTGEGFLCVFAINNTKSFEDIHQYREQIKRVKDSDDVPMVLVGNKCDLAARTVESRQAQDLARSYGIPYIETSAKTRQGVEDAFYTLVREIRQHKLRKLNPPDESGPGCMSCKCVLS

CCC[C@H]1C(=O)N[C@@H]([C@@H](C)CC)C(=O)N(C2CC2)CC(=O)N(C)[C@H]2C/C=C\CCN(C2=O)[C@@H](Cc2ccc(C)cc2)C(=O)N(C)CC(=O)N[C@@H](CCc2cc(F)c(Cl)c(OC)c2)C(=O)N2C[C@H](OCC)C[C@H]2C(=O)NC2(CC(C)(C)C2)C(=O)N(C)[C@@H](C2CCCC2)C(=O)N(C)[C@H](C(=O)N(C)C)CC(=O)N1C [PP2871]
HRAS /KRAS [1]: A (a compound having 10 or more and less than 20 is denoted as A)
IC50 [2]: 28.4 nM
NRAS /KRAS [3]: A (a compound having 10 or more and less than 20 is denoted as A)

CCC[C@H]1C(=O)N[C@@H]([C@@H](C)CC)C(=O)N(C2CC2)CC(=O)N(C)[C@H]2C/C=C\CCN(C2=O)[C@@H](Cc2ccc(C)cc2)C(=O)N(C)CC(=O)N[C@@H](CCc2cc(C)c(C(F)F)c(C)c2)C(=O)N2C[C@H](OCC)C[C@H]2C(=O)NC2(CC(C)(C)C2)C(=O)N(C)[C@@H](C2CCCC2)C(=O)N(C)[C@H](C(=O)N(C)C)CC(=O)N1C [PP2873]
HRAS /KRAS [1]: A (a compound having 10 or more and less than 20 is denoted as A)
IC50 [2]: 128 nM
NRAS /KRAS [3]: A (a compound having 10 or more and less than 20 is denoted as A)

CCC[C@H]1C(=O)N[C@@H]([C@@H](C)CC)C(=O)N(C2CC2)CC(=O)N(C)[C@H]2C/C=C\CCN(C2=O)[C@@H](Cc2ccc(C)cc2)C(=O)N(C)CC(=O)N[C@@H](CCc2cc(C)c(C(F)F)c(F)c2)C(=O)N2C[C@H](OCC)C[C@H]2C(=O)NC2(CC(C)(C)C2)C(=O)N(C)[C@@H](C2CCCC2)C(=O)N(C)[C@H](C(=O)N(C)C)CC(=O)N1C [PP2874]
HRAS /KRAS [1]: A (a compound having 10 or more and less than 20 is denoted as A)
IC50 [2]: 44 nM
NRAS /KRAS [3]: A (a compound having 10 or more and less than 20 is denoted as A)

CCC[C@H]1C(=O)N[C@@H]([C@@H](C)CC)C(=O)N(C2CC2)CC(=O)N(C)[C@H]2C/C=C\CCN(C2=O)[C@@H](Cc2ccc(C)cc2)C(=O)N(C)CC(=O)N[C@@H](CCc2cc(C)c(C(F)F)c(Cl)c2)C(=O)N2C[C@H](OCC)C[C@H]2C(=O)NC2(CC(C)(C)C2)C(=O)N(C)[C@@H](C2CCCC2)C(=O)N(C)[C@H](C(=O)N(C)C)CC(=O)N1C [PP2875]
HRAS /KRAS [1]: A (a compound having 10 or more and less than 20 is denoted as A)
IC50 [2]: 121 nM
NRAS /KRAS [3]: A (a compound having 10 or more and less than 20 is denoted as A)

CCC[C@H]1C(=O)N[C@@H]([C@@H](C)CC)C(=O)N(C2CC2)CC(=O)N(C)[C@H]2C/C=C\CCN(C2=O)[C@@H](Cc2ccc(C)cc2)C(=O)N(C)CC(=O)N[C@@H](CCc2cc(Cl)c(C(F)F)c(Cl)c2)C(=O)N2C[C@H](OCC)C[C@H]2C(=O)NC2(CC(C)(C)C2)C(=O)N(C)[C@@H](C2CCCC2)C(=O)N(C)[C@H](C(=O)N(C)C)CC(=O)N1C [PP2877]
HRAS /KRAS [1]: A (a compound having 10 or more and less than 20 is denoted as A)
IC50 [2]: 96 nM
NRAS /KRAS [3]: A (a compound having 10 or more and less than 20 is denoted as A)

CCC[C@H]1C(=O)N[C@@H]([C@@H](C)CC)C(=O)N(C2CC2)CC(=O)N(C)[C@H]2C/C=C\CCN(C2=O)[C@@H](Cc2ccc(C)cc2)C(=O)N(C)CC(=O)N[C@@H](CCc2cc(F)c3c(c2)CCC3)C(=O)N2C[C@H](OCC)C[C@H]2C(=O)NC2(CC(C)(C)C2)C(=O)N(C)[C@@H](C2CCCC2)C(=O)N(C)[C@H](C(=O)N(C)C)CC(=O)N1C [PP2879]
HRAS /KRAS [1]: A (a compound having 10 or more and less than 20 is denoted as A)
IC50 [2]: 122 nM
NRAS /KRAS [3]: A (a compound having 10 or more and less than 20 is denoted as A)

CCC[C@H]1C(=O)N[C@@H]([C@@H](C)CC)C(=O)N(C2CC2)CC(=O)N(C)[C@H]2C/C=C\CCN(C2=O)[C@@H](Cc2ccc(C)cc2)C(=O)N(C)CC(=O)N[C@@H](CCc2cc(F)c3c(c2)OCC3)C(=O)N2C[C@H](OCC)C[C@H]2C(=O)NC2(CC(C)(C)C2)C(=O)N(C)[C@@H](C2CCCC2)C(=O)N(C)[C@H](C(=O)N(C)C)CC(=O)N1C [PP2880]
HRAS /KRAS [1]: A (a compound having 10 or more and less than 20 is denoted as A)
IC50 [2]: 127 nM
NRAS /KRAS [3]: A (a compound having 10 or more and less than 20 is denoted as A)

CCC[C@H]1C(=O)N[C@@H]([C@@H](C)CC)C(=O)N(C2CC2)CC(=O)N(C)[C@H]2C/C=C\CCN(C2=O)[C@@H](Cc2ccc(C)cc2)C(=O)N(C)CC(=O)N[C@@H](CCc2ccc(C3CC3)c(OC)c2)C(=O)N2C[C@H](OCC)C[C@H]2C(=O)NC2(CC(C)(C)C2)C(=O)N(C)[C@@H](C2CCCC2)C(=O)N(C)[C@H](C(=O)N(C)C)CC(=O)N1C [PP2883]
HRAS /KRAS [1]: A (a compound having 10 or more and less than 20 is denoted as A)
IC50 [2]: 76.2 nM
NRAS /KRAS [3]: A (a compound having 10 or more and less than 20 is denoted as A)

CCC[C@H]1C(=O)N[C@@H]([C@@H](C)CC)C(=O)N(C2CC2)CC(=O)N(C)[C@H]2C/C=C\CCN(C2=O)[C@@H](Cc2ccc(C)cc2)C(=O)N(C)CC(=O)N[C@@H](CCc2ccc(C3CC3)c(F)c2)C(=O)N2C[C@H](OCC)C[C@H]2C(=O)NC2(CC(C)(C)C2)C(=O)N(C)[C@@H](C2CCCC2)C(=O)N(C)[C@H](C(=O)N(C)C)CC(=O)N1C [PP2884]
HRAS /KRAS [1]: A (a compound having 10 or more and less than 20 is denoted as A)
IC50 [2, 4]: 35.9 nM
NRAS /KRAS [3]: A (a compound having 10 or more and less than 20 is denoted as A)

CCC[C@H]1C(=O)N[C@@H]([C@@H](C)CC)C(=O)N(C2CC2)CC(=O)N(C)[C@H]2C/C=C\CCN(C2=O)[C@@H](Cc2ccc(C)cc2)C(=O)N(C)CC(=O)N[C@@H](CCc2ccc(C3CC3)c(Cl)c2)C(=O)N2C[C@H](OCC)C[C@H]2C(=O)NC2(CC(C)(C)C2)C(=O)N(C)[C@@H](C2CCCC2)C(=O)N(C)[C@H](C(=O)N(C)C)CC(=O)N1C [PP2885]
HRAS /KRAS [1]: A (a compound having 10 or more and less than 20 is denoted as A)
IC50 [2]: 80.6 nM
NRAS /KRAS [3]: A (a compound having 10 or more and less than 20 is denoted as A)

CCC[C@H]1C(=O)N[C@@H]([C@@H](C)CC)C(=O)N(C2CC2)CC(=O)N(C)[C@H]2C/C=C\CCN(C2=O)[C@@H](Cc2ccc(C)cc2)C(=O)N(C)CC(=O)N[C@@H](CCc2ccc(C3CC3)c(C)c2)C(=O)N2C[C@H](OCC)C[C@H]2C(=O)NC2(CC(C)(C)C2)C(=O)N(C)[C@@H](C2CCCC2)C(=O)N(C)[C@H](C(=O)N(C)C)CC(=O)N1C [PP2886]
HRAS /KRAS [1]: A (a compound having 10 or more and less than 20 is denoted as A)
IC50 [2, 4]: 112 nM
NRAS /KRAS [3]: A (a compound having 10 or more and less than 20 is denoted as A)

CCC[C@H]1C(=O)N[C@@H]([C@@H](C)CC)C(=O)N(C)CC(=O)N(C)[C@H]2C/C=C\CCN(C2=O)[C@@H](Cc2ccc(C(F)(F)F)cc2)C(=O)N(C)CC(=O)N[C@@H](CCc2cc(Cl)c3sccc3c2)C(=O)N2C[C@H](OCC)C[C@H]2C(=O)NC2(CC(C)(C)C2)C(=O)N(C)[C@@H](C(CC)CC)C(=O)N(C)[C@H](C(=O)N(C)C)CC(=O)N1C [PP2888]
HRAS /KRAS [1]: A (a compound having 10 or more and less than 20 is denoted as A)
IC50 [2]: 14.2 nM
NRAS /KRAS [3]: AA (a compound having 20 or more is denoted as AA)
